# Legend:
# RPS11 KO SNB19 cells = assay: Viability assay, RPS11 KO cells; assay type: cell-based, human; conditions: 5 μM, 72 hrs
# Protocol: (§1) Single gene editing. To edit FANCB and RPS11, we used single guide RNAs that were enriched for both genes as well as the non-targeting controls. Briefly, these guides were synthesized by Synthego and following the protocol, we prepared the ribonucleoprotein complexes by mixing the guides (180 pmol) with recombinant Cas9 protein (Synthego) 20 pmol in […]. The complexes were allowed to form at room temp for 15 mins, and then […] of Opti-MEM I reduced serum medium and […] of lipofectamine Cas9 plus reagent were then added. Both, the cells and the formed ribonucleoprotein complexes, were seeded at the same time with 150,000 SNB19 cells in a T25 flask. The cells were incubated for 4 days.
# (§2) Viability assay. […] Titre glo was added following incubation with drugs. (Cat No: G7572) and the viability of cells was analyzed 5 min later by measuring the luminescence. We normalized the intensity against DMSO treated cells of each cell line or PDX or the edited cell and then determined the survival. Pictures of these cells were also taken as shown in the source data figures.
# FANCB KO SNB19 cells = assay: Viability assay, FANCB KO cells; assay type: cell-based, human; conditions: 5 μM, 72 hrs
# Protocol: as §1, §2
# SNB19 [1] = assay: Viability assay (Titre glo), susceptible glioma cell line; assay type: cell-based, human; conditions: etoposide 5 μM, 72 hrs
# Protocol: as §2
# [2] = test system: resistant glioma cell lines; assay: Viability assay, resistant glioma cell lines; assay type: cell-based, human; conditions: etoposide 5 μM, 72 hrs
# Protocol: as §2
# SNB19 cells = assay: Genome-wide CRISPR KO screen, etoposide selection; assay type: cell-based, human; conditions: etoposide 5 μM, 14 days, CRISPR KO library SNB19 cells
# Protocol: Large scale cell culture and expansion. To perform the CRISPR screening, SNB19 cells were expanded to 500 million and then spinfected with 70,000sgRNA. After spinfection, the cells are selected with 0.6 μg/ml of puromycin for 4 days. This selection is aimed at the cells that have been rightly integrated with the sgRNA that incorporates the puromycin cassette into their genome. […] We used 50 million of selected cells for the extraction of genomic DNA. The base sgRNA representation is obtained by amplification of the sgRNA with unique barcoded primers. The remaining 100 million cells were expanded for 2 days, once cells grew to 200 million. […] After 14 days, the cells were harvested, the gDNA extracted, and the sgRNA amplified with another unique barcoded primer.
# GBM12 [3] = assay: Etoposide dose-response viability; assay type: cell-based, human; conditions: GBM12, dose-response in vitro 72 hrs
# Protocol: as §2
# GBM43 = assay: Etoposide dose-response viability; assay type: cell-based, human; conditions: GBM43, dose-response in vitro 72 hrs
# Protocol: as §2
# GBM6 [4] = assay: Etoposide dose-response viability; assay type: cell-based, human; conditions: GBM6, dose-response in vitro 72 hrs
# Protocol: as §2
# MES83 = assay: Etoposide dose-response viability; assay type: cell-based, human; conditions: MES83, dose-response in vitro 72 hrs
# Protocol: as §2
# U251 [5] = assay: Etoposide dose-response viability; assay type: cell-based, human; conditions: U251, dose-response in vitro 72 hrs
# Protocol: as §2
# SNB19 [6] = assay: Click-it Plus OPP nascent protein synthesis; assay type: cell-based, human; conditions: SNB19, 5 μM, 24 hrs
# Protocol: (§3) Click-it Plus OPP Assay, Apoptosis Assay and Flow Cytometry. To determine if nascent protein synthesis is impaired upon editing of RPS11 and FANCB. We seeded edited cells SgRPS11, SgFANCB, wild type SNB19 and the non-targeting controls in a 96 well plate with black covers overnight at 4,000 cells/well. […] Following the protocol from Life technologies (Cat No: C10456), we added the Click-it OPP (1:1000), or Caspase 3/7 (Cat no: C10427) or with antibodies against BID, BCL2 or APAF1 for 30 mins. After washing cells were fixed and primary antibodies were detected secondary antibodies conjugated to Alexa Flour 488. The fluorophore intensity was measured by flow cytometry (LSR Fortessa 1 analyzer). As a complementary approach, the labelled cells were also imaged in a fluorescent microscope (Nikon Ti2 Widefield).
# U251 [7] = assay: Click-it Plus OPP nascent protein synthesis; assay type: cell-based, human; conditions: U251, 5 μM, 24 hrs
# GBM6 [8] = assay: Click-it Plus OPP nascent protein synthesis; assay type: cell-based, human; conditions: GBM6, 5 μM, 24 hrs
# GBM12 [9] = assay: Click-it Plus OPP nascent protein synthesis; assay type: cell-based, human; conditions: GBM12, 5 μM, 24 hrs
# APAF1, RPS11 KO cells = assay: APAF1 expression (qRT-PCR, Western blot); assay type: cell-based, human
# Protocol: (§4) Western blot. […] The cells were lysed using water bath ultrasonicator for 4 mins. Cell lysate were cleared by centrifugation. We measured the concentration of protein in lysates. Denatured lysates were loaded into 4-20% Tris-glycine gels (Novex) and separated at 180V for 2 hrs. The gels were transferred unto a PVDF membrane by semi-dry blotting for 1 hr. We blocked the membrane in 5% non-fat milk TBST buffer for 30 mins and incubated with primary antibodies RPS11 (1:500), FANCB (1:500), GAPDH or ACTB (1:1500) in 5% BSA respectively over night shaking at 4° C. Primary antibodies were removed and we added the secondary polyclonal HRP (1:20,000) in TBST and incubated shaking for 2 hrs at room temp. The membrane were washed 6× in TBST and then developed with ECL (Cat No: 1705061) and band imaged on a Bio-Rad Chemi-doc imaging system. qRT-PCR. […] The total RNA was extracted using Zymo Research kit (Direct-zol RNA Miniprep Plus, Cat no: R2070). The quality of the RNA was determined by RNA pico bioanalyzer measuring the 18S and 28S ribosome. Using the superscript III first strand synthesis system (Cat no: 18080-051), we generated cDNA and performed qPCR with APAF1 and ACTB primers in triplicates and fold change of expression of APAF1 were normalized against actin B (ACTB).
# [10] = test system: APAF1, SNB19 WT and non-targeting control cells; assay: APAF1 expression (qRT-PCR, Western blot); assay type: cell-based, human
# Protocol: as §4
# BCL2, GBM6 = assay: BCL2 expression by flow cytometry; assay type: cell-based, human; conditions: GBM6, 24 hrs
# BCL2, GBM12 = assay: BCL2 expression by flow cytometry; assay type: cell-based, human; conditions: GBM12, 24 hrs
# Protocol: as §3
# [11] = test system: BID, susceptible glioma cells; assay: BID expression by flow cytometry; assay type: cell-based, human; conditions: susceptible glioma cells compared to resistant cells, 24 hrs
# Protocol: as §3
# [12] = gliomas and brain metastases, systemic administration, human; cited from earlier work
structure (smiles),measurement,setting,value
COc1cccc2c1C(=O)c1c(O)c3c(c(O)c1C2=O)C[C@@](O)(C(=O)CO)C[C@@H]3O[C@H]1C[C@H](N)[C@H](O)[C@H](C)O1 [doxorubicin],susceptibility (viability),RPS11 KO SNB19 cells,resistant
same,susceptibility (viability),FANCB KO SNB19 cells,acquired resistance
COc1cc([C@@H]2c3cc4c(cc3[C@@H](O[C@@H]3O[C@@H]5CO[C@@H](C)O[C@H]5[C@H](O)[C@H]3O)[C@H]3COC(=O)[C@H]23)OCO4)cc(OC)c1O [etoposide],cells death,SNB19 [1],80%
same,cell death,[2],minimal cell death
same,cells surviving treatment,SNB19 cells,less than 1%
same,susceptibility (viability),RPS11 KO SNB19 cells,resistant
same,susceptibility (viability),FANCB KO SNB19 cells,acquired resistance
same,susceptibility to etoposide,GBM12 [3],resistance
same,susceptibility to etoposide,GBM43,less sensitive
same,susceptibility to etoposide,GBM6 [4],resistance
same,susceptibility to etoposide,MES83,susceptible
same,susceptibility to etoposide,U251 [5],susceptible
same,nascent proteins following etoposide treatment,SNB19 [6],decrease in nascent proteins
same,nascent proteins following etoposide treatment,U251 [7],decrease in nascent proteins
same,nascent proteins following etoposide treatment,GBM6 [8],no decrease in nascent proteins
same,nascent proteins following etoposide treatment,GBM12 [9],no decrease in nascent proteins
same,APAF1 protein following etoposide treatment,"APAF1, RPS11 KO cells",decrease
same,APAF1 transcript following etoposide treatment,"APAF1, RPS11 KO cells; 24 hrs",no significant expression changes
same,APAF1 transcript following etoposide treatment,"[10]; SNB19 WT and non-targeting control cells, 24 hrs",significant induction
same,APAF1 protein levels following etoposide treatment,[10]; SNB19 wild-type and non-targeting control cells,increased
same,BCL2 expression following etoposide treatment,"BCL2, GBM6",increase
same,BCL2 expression following etoposide treatment,"BCL2, GBM12",increase
same,BID expression following etoposide treatment,[11],increased BID expression
same,intratumoral concentration in tumor tissue,[12],2 to 6 µM
